The source of these data is patent publication US20240415819A1, “MACROCYCLIC COMPOUNDS AS PROTEASOME SUBUNIT BETA TYPE-5 INHIBITORS” (Lead Discovery Center GmbH, priority 2021, published 2024).

Each structure is given as a SMILES string. Like-named read-outs stand apart in the source and are kept apart here.

In test [1] the target is T1, β5 subunit of the human immunoproteasome (IPS) (Homo sapiens, UniProt P28062).
T1 construct: purchased Boston Biochem E-370
Put plainly: β5 inhibition assay, human immunoproteasome (Suc-LLVY-AMC). It counts as biochemical. The following applies: IC50 class, Suc-LLVY-AMC substrate. In outline: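 β5 activity is read as liberated AMC fluorescence (355/460 nm) after 4 h dark reaction at RT with 22.6 μM Suc-LLVY-AMC, stopped by 1 μM bortezomib. Beforehand, 1 nM human IPS and compound sat 10 min at RT in HEPES pH 7.5 buffer containing NaCl, 0.02% SDS and DTT.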

Test [2] deals with B-cells isolated from PBMC's. Put plainly: Chymotrypsin-like ProteasomeGlo assay in B-cells isolated from PBMCs. It counts as cell-based, human. The source says: PBMC's will be isolated from human blood followed by B-cell isolation from the PBMC's using the Miltenyi Isolation Kit. • 2. This experiment will use the Chymotrypsin-like ProteasomeGlo read-out to generate IC50's following compound treatment. • 3. Dilute all compounds 1:100 for the assay. • 4. […] Repeat the DMSO transfer with lane 12. • 5. Lane 12 should not be seeded with any cells. Only medium! • 6. For all steps, make sure the samples and reagents remain cool! • 7. While dealing with the buffy coats, be careful to not let any exposed skin to be in direct contact with the blood. […] PBMC isolation followed by B-cell isolation using the Miltenyi Kit • Day 2: B-cell plating, ECHO transfer and ProteasomeGlo assay For the initial steps and to make processing the buffy coats easier, separately process the buffy coats. • a. Cut the tube attached to the buffy coats carefully using a clean, sterile and fresh scalpel. • b. Transfer the blood into 2 individual 50 ml falcons. • c. Add an equal volume of DPBS to the blood in the falcons. • d. Add 20 ml of lymphocyte separating medium to two 50 ml falcons. • e. Carefully pour 15-20 ml of the blood+DPBS mix from step c. onto the lymphocyte separating medium from step d. • f. Centrifuge the falcons with the lymphocyte separating medium+blood mix at 800×g for 15 minutes using a swing-out rotor. • g. Following centrifugation, carefully remove the falcons from the centrifuge. • h. The following layers will be observed: • i. Aspirate the plasma layer off carefully without disturbing the different layers. • j. Remove the cell pellet using a pipette into two fresh 50 ml falcons. • k. Fill the falcons with the cells up to 50 ml with DPBS. • l. Centrifuge the falcons at 250×g for 10 minutes using a swing-out rotor (Brake-off). • m. Aspirate the complete DPBS off the cells without disturbing the cell pellet at the bottom of the falcon. • n. Re-suspend the cell pellet in 10 ml of 1×RBC lysis buffer. • o. Incubate the falcons at room temperature in the dark for 10 minutes. • p. After RBC lysis, centrifuge the tubes at 250×g for 10 minutes using a swing-out rotor (brake-off). • (*Note: If the cell pellet is still red or light red, repeat steps n. to p.!) • q. Re-suspend the cell pellet in DPBS up to 50 ml in the falcon. • r. Centrifuge the falcons at 250×g for 10 minutes using a swing-out rotor (Brake-off). • s. Aspirate the DPBS off the cells without disturbing the cell pellet at the bottom of the falcon. • t. Repeat the wash step as described in steps q. to s. 2× times more (total number of washes is 3×). • u. Aspirate the DPBS completely off the cell pellet after the last wash without disturbing the cell pellet. • v. Re-suspend the cell pellet in 20 ml of PBMC cell medium. • w. […] Re-suspend the pellet in volume of the B-cell isolation buffer calculated as follows: • k. Mix well using a 1 ml pipette and incubate the mix on ice for 20 mins. • l. In the meantime, equilibrate one LS Column as follows: • 1. Insert one LS Column into one slot of the separator as depicted in the pictures above. • 2. Place a 50 ml falcon at the bottom of the LS column to collect the wash flow-through. • 3. Add 3 ml of the B-cell isolation buffer into the column. • 4. Allow the buffer to flow-through making sure that the entire volume passes the column and that the column reservoir is empty before the addition of the cells. • 5. Remove the falcon with the flow-through and discard. • m. Place a fresh 50 ml falcon under the LS Column to collect the untouched B-cells isolated from the PBMCs. • n. Apply the entire volume of the cell+antibody+microbeads mix to the LS Column. • o. Collect the flow-through from each application of the mix into the same 50 ml falcon under the LS Column. • p. Once the complete volume of the cell+antibody+microbead mix has been passed through, proceed to washing of the column. • q. Add 3 ml of the B-cell isolation buffer to the LS Column and allow the buffer to flow-through. […]

The subject of a further test is HT-29 cells. Put plainly: CellTiter-Glo luminescent cell viability assay with HT-29 cells (72h incubation). The following applies: read-out: CTG HT29. It counts as cell-based, human. The essentials: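 Viability read as CellTiter-Glo luminescence after 72 h compound exposure, with 10 μM staurosporine and DMSO as control wells. Seeding 400 cells per well, compound added 24 h post-plating; IC50 from curve fitting.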

Setting [3] is: Homo sapiens, B-cells isolated from PBMC's, read-out: Pglo B-Cell.
Setting [4] is: Homo sapiens, HT-29, HT29 cells.

Take `Cc1ccc2cc1CNC(=O)[C@H](CCc1ccccc1)NC(=O)[C@@H](NC(=O)C(C)(C)C)CC(=O)N1CCCC(CCO2)C1` (stereo partly drawn) [Compound 27, N-((9S,12S)-5^4-methyl-8,11,14-trioxo-9-phenethyl-4-oxa-7,10-diaza-1(3,1)-piperidina-5(1,3)-benzenacyclotetradecaphane-12-yl)pivalamide]: the figures for the IC50 (in test [1]; in test [2] (setting [3]); in the test on HT-29 cells (setting [4])) were less than 0.1 µM, less than 100 nM and less than 0.1 µM, respectively.

For `Cc1ccc2cc1CNC(=O)[C@H](CCc1ccccc1)NC(=O)[C@@H](NC(=O)Cc1ccccc1)CC(=O)N1CCCC(CCO2)C1` (stereo partly drawn) [Compound 29, N-((9S,12S)-5^4-methyl-8,11,14-trioxo-9-phenethyl-4-oxa-7,10-diaza-1(3,1)-piperidina-5(1,3)-benzenacyclotetradecaphane-12-yl)-2-phenylacetamide], the IC50 is less than 0.1 µM in test [1], less than 100 nM in test [2] (setting [3]) and less than 0.1 µM with HT-29 cells (setting [4]).

Consider `Cc1ccc2cc1CNC(=O)C(CCc1ccccc1)NC(=O)C(NC(=O)CCc1ccccc1)CC(=O)N1CCCC(CCO2)C1` [Compound 30, N-((9S,12S)-5^4-methyl-8,11,14-trioxo-9-phenethyl-4-oxa-7,10-diaza-1(3,1)-piperidina-5(1,3)-benzenacyclotetradecaphane-12-yl)-3-phenylpropanamide], for which the IC50 was less than 0.1 µM in test [1]; less than 100 nM in test [2] (B-cells isolated from PBMC's, read-out: Pglo B-Cell); less than 0.1 µM in the test on HT-29 cells (HT29 cells).

As to `Cc1ccc2cc1CNC(=O)[C@H](CCc1ccccc1)NC(=O)[C@@H](NC(=O)c1nc3ccccc3[nH]1)CC(=O)N1CCCC(CCO2)C1` (stereo partly drawn) [Compound 31, N-((9S,12S)-5^4-methyl-8,11,14-trioxo-9-phenethyl-4-oxa-7,10-diaza-1(3,1)-piperidina-5(1,3)-benzenacyclotetradecaphane-12-yl)-1H-benzo[d] imidazole-2-carboxamide], the figures for the IC50 (in test [1]; in test [2] (setting [3]); with HT-29 cells (setting [4])) were less than 0.1 µM, less than 100 nM and less than 0.1 µM, respectively.

For `Cc1ccc2cc1CNC(=O)[C@H](CCc1ccccc1)NC(=O)[C@@H](NC(=O)c1ncccn1)CC(=O)N1CCCC(CCO2)C1` (stereo partly drawn) [Compound 32, N-((9S,12S)-5^4-methyl-8,11,14-trioxo-9-phenethyl-4-oxa-7,10-diaza-1(3,1)-piperidina-5(1,3)-benzenacyclotetradecaphane-12-yl)pyrimidine-2-carboxamide], the IC50 was less than 0.1 µM in test [1], less than 100 nM in test [2] (setting [3]) and less than 0.1 µM with HT-29 cells (setting [4]).

Consider `CC(=O)N[C@H]1CC(=O)N2CCCC(CCOc3ccc(C)c(c3)CNC(=O)[C@H](CCc3ccccc3)NC1=O)C2` (stereo partly drawn) [Compound 33, N-((9S,12S)-5^4-methyl-8,11,14-trioxo-9-phenethyl-4-oxa-7,10-diaza-1(3,1)-piperidina-5(1,3)-benzenacyclotetradecaphane-12-yl)acetamide], for which the figures for the IC50 (in test [1]; in test [2] (setting [3]); in the test on HT-29 cells (setting [4])) were less than 0.1 µM, less than 100 nM and less than 0.1 µM, respectively.

Turning to `Cc1ccc2cc1CNC(=O)[C@H](CCc1ccccc1)NC(=O)[C@@H](Nc1ncccn1)CC(=O)N1CCCC(CCO2)C1` (stereo partly drawn) [Compound 34, (9S,12S)-5^4-methyl-9-phenethyl-12-(pyrimidin-2-ylamino)-4-oxa-7,10-diaza-1(3,1)], the IC50 in test [1] was less than 0.1 µM; in test [2] (Homo sapiens, read-out: Pglo B-Cell [nM]), less than 100 nM; with HT-29 cells (setting [4]), less than 0.1 µM.

Take `Cc1ccc2cc1CNC(=O)[C@H](CCc1ccccc1)NC(=O)[C@@H](NC1COC1)CC(=O)N1CCCC(CCO2)C1` (stereo partly drawn) [Compound 35, (9S,12S)-5^4-methyl-12-(oxetan-3-ylamino)-9-phenethyl-4-oxa-7,10-diaza-1(3,1)-piperidina-5(1,3)-benzenacyclotetradecaphane-8,11,14-trione]: the IC50 is less than 0.1 µM in test [1], less than 100 nM in test [2] (setting [3]) and 0.1 to 0.5 µM in the test on HT-29 cells (setting [4]).

`Cc1ccc2cc1CNC(=O)[C@H](CCc1ccccc1)NC(=O)[C@@H](NC(=O)Cc1ccccc1C)CC(=O)N1CCCC(CCO2)C1` (stereo partly drawn) [Compound 373, N-((9S,12S)-5^4-methyl-8,11,14-trioxo-9-phenethyl-4-oxa-7,10-diaza-1(3,1)-piperidina-5(1,3)-benzenacyclotetradecaphane-12-yl)-2-(o-tolyl)acetamide]: the IC50 in test [1] was less than 0.1 µM; in test [2] (setting [3]), less than 100 nM.

Turning to `CC(=O)N[C@H]1CC(=O)N2CCCC(CCOc3ccc(C)c(c3)CNC(=O)C(CCc3nccs3)NC1=O)C2` (stereo partly drawn) [Compound 563, N-((12S)-5^4-methyl-8,11,14-trioxo-9-(2-(thiazol-2-yl)ethyl)-4-oxa-7,10-diaza-1(3,1)-piperidina-5(1,3)-benzenacyclotetradecaphane-12-yl)acetamide], the IC50 (in test [1]; with HT-29 cells (setting [4])) was less than 0.1 µM each time.

For the molecule `CC(=O)N[C@H]1CC(=O)N2CCCC(CCOc3ccc(C)c(c3)CNC(=O)C(c3cnn(CCOCCOCCOCCN)c3)NC1=O)C2` (stereo partly drawn) [Compound 566, N-((12S)-9-(1-(2-(2-(2-(2-aminoethoxy)ethoxy)ethoxy)ethyl)-1H-pyrazol-4-yl)-5^4-methyl-8,11,14-trioxo-4-oxa-7,10-diaza-1(3,1)-piperidina-5(1,3)-benzenacyclotetradecaphane-12-yl)acetamide], the results for the IC50 (in test [1]; in the test with HT-29 cells (setting [4])) were less than 0.1 µM and 0.1 to 0.5 µM, respectively.

Regarding `CC(=O)N[C@H]1CC(=O)N2CCCC(CCOc3ccc(C)c(c3)CNC(=O)C(c3cnn(CCC(=O)O)c3)NC1=O)C2` (stereo partly drawn) [Compound 567, 3-(4-((12S)-12-acetamido-5^4-methyl-8,11,14-trioxo-4-oxa-7,10-diaza-1(3,1)-piperidina-5(1,3)-benzenacyclotetradecaphane-9-yl)-1H-pyrazol-1-yl)propanoic acid], the values for the IC50 (in test [1]; in the test on HT-29 cells (setting [4])) were less than 0.1 µM and 0.1 to 0.5 µM, respectively.
